Experiments:
HIV virus strains 1-4 = test: Measured phenotype (pFR = -log fold resistance), censored values, genotype/phenotype dataset; format: cell-based; conditions: pFR = -log(FR)
Method: (§1) For the purposes of the invention, the mutations identified should be associated with resistance or susceptibility to drug therapy, for example an antiretroviral drug. The degree to which a particular mutation pattern may affect resistance may be determined by one of skill in the art, for example, using the phenotypic resistance monitoring assay such as, the ANTIVIROGRAM® (Virco, Belgium) (see WO97/27480). In this methodology, resistance is determined with respect to a laboratory reference strain HIVLAI/IIIB. The difference in IC50 (the concentration of drug required to reduce the virus' growth in cell culture by 50%) between the patient sample and the reference viral strain is determined as a quotient. This fold change in IC50 is reported and indicative of the resistance profile of a certain drug. Based on the changes in IC50, cut-off values have been established to distinguish a sample from being sensitive or resistant to a certain drug.
The phenotypes are presented as pFR values, where pFR is equal to −log(FR), where FR denotes the Fold Resistance. Negative pFR values thus denote resistance and positive values denote hyper-susceptibility. For example, a pFR value of −1.0 is equal to 10-fold resistance.
The used dataset consists of a set of matching genotype/phenotype measurements with possible multiple phenotype measurements per genotype. The mutations are defined relative to HXB2 at amino acid level. The phenotypes are presented as pFR values, which is equal to −log(FR), where FR denotes the Fold Resistance.
In this example, the method developed by the inventors to deal with censored values was applied for the drug amprenavir. Firstly, a linear regression model without censored values was calculated, see the values ‘APV_pFR’ for iteration 0 in the Tables 18-21 below. The phenotypic measured value is <−2.083062017 for Virus strain 1, for the first iteration, the value V0 is equal to the measured phenotype value APV_pFR, but the censor is considered as ‘=’. This was followed by iteration nr. 1. Once the values were obtained from iteration 1, the inventors compared the prediction value P, e.g. for Virus strain 1, −2.362076895 with the phenotypic measured value <−2.083062017. For virus strains 1, 2 and 3 below, the measured values have a censor ‘<’. For virus strains 4, the measured value has a censor ‘>’. The scenarios established by the inventors, when the case was ‘<’-censor, and when the case was ‘>’-censor, were applied. New linear regression models were calculated and for the censored values in the linear regression model, either the data-points from the training set were removed, as for virus strains 1, 2 and for virus strain 4 (iteration 2 and 3 only), or those data-points were used instead of the censored phenotypes measurement, as illustrated for virus strain 3 and for virus strain 4 (only iteration 1). The procedure was reiterated until the prediction converged.

one HIV-1 sample = test: Phenotypic antiviral experiment (as described in WO97/27480), fold change in IC50/EC50 relative to reference wild-type virus; format: cell-based; conditions: fold change in IC50 or EC50 relative to reference wild-type virus
Method: as §1
The results were expressed in FR, or fold change in IC50 or EC50, relative to reference wild-type virus, which is the drug concentration at which 50% of the enzyme activity is inhibited, and is expressed in μM units. The FR cutoffs values for normal susceptible ranges were 8, 10, and 6, for nevirapine, delavirdine, and efavirenz, respectively.
The phenotypic antiviral experiment was taken as the gold-standard by the inventors. Said phenotypic antiviral experiment was performed as described in WO97/27480.

CC(C)CN(C[C@@H](O)[C@H](Cc1ccccc1)NC(=O)O[C@H]1CCOC1)S(=O)(=O)c1ccc(N)cc1 [APV, amprenavir]
APV_pFR (phenotypic measured value) (HIV virus strains 1-4; Virus strain 1, censor '<'): < −2.083 | APV_pFR (phenotypic measured value) (HIV virus strains 1-4; Virus strain 1, censor '<', listed as amprenavir): < −2.083 | APV_pFR (phenotypic measured value) (HIV virus strains 1-4; Virus strain 2, censor '<'): < −1.909 | APV_pFR (phenotypic measured value) (HIV virus strains 1-4; Virus strain 3, censor '<'): <−1.957 | APV_pFR (phenotypic measured value) (HIV virus strains 1-4; Virus strain 4, censor '>'): > 0.5154

Cc1ccnc2c1NC(=O)c1cccnc1N2C1CC1 [Nevirapine]
FR (phenotypic antiviral experiment) (one HIV-1 sample): >89

CC(C)Nc1cccnc1N1CCN(C(=O)c2cc3cc(NS(C)(=O)=O)ccc3[nH]2)CC1 [delavirdine]
FR (phenotypic antiviral experiment) (one HIV-1 sample): 3.7

O=C1Nc2ccc(Cl)cc2[C@@](C#CC2CC2)(C(F)(F)F)O1 [efavirenz]
FR (phenotypic antiviral experiment) (one HIV-1 sample): 17.5

From patent US20100161239A1, “QU[…]” (VICRO BVBA, priority 2003, published 2010)
